Test results published in ChEMBL document CHEMBL6078714, “Discovery of N-Trifluoromethylated Noscapines as Novel and Potent Agents for the Treatment of Glioblastoma” (J Med Chem, 2025).
Activity calls are given as the source filed them. No cut-off for these calls is given here.

Legend:
[1] = Stability of compound in sodium phosphate buffer at pH 7.4 measured after 48 hrs by 1H NMR analysis; type: physicochemical; settings: pH 7.4, 48 h
[2] = Stability of compound in 0.1M HCl solution at pH 1.0 measured after 48 hrs by 1H NMR analysis; type: physicochemical; settings: buffer, pH 1, 48 h
[3] = test system: U-87 MG; assay: Antiproliferative activity against human U87 cells; type: functional, cell-based, U-87MG ATCC
[4] = Permeability of compound incubated for 12 hrs by PAMPA; type: ADME; settings: read-out: permeability
[5] = test system: U-118-MG; assay: Antiproliferative activity against human U-118-MG cells assessed as inhibition of cell proliferation incubated for 72 hrs by CCK8 assay; type: functional, cell-based
[6] = test system: U-87 MG; assay: Antiproliferative activity against human U-87 MG cells assessed as inhibition of cell proliferation incubated for 72 hrs by CCK8 assay; type: functional, cell-based, U-87MG ATCC
[7] = test system: U-118-MG; assay: Antiproliferative activity against human U-118- MG cells assessed as inhibition of cell proliferation at 10 uM by crystal violet staining based analysis; type: functional
[8] = test system: U-118-MG; assay: Antiproliferative activity against human U-118- MG cells assessed as inhibition of cell proliferation by crystal violet staining based analysis; type: functional; settings: dose 10-40 µM
[9] = Nephrotoxicity in male BALB/c nude mouse xenografted with human U-118-MG cells assessed as intravascular necrosis of renal tubules at 0.5 mg/kg, ip administered daily for 4 weeks by H and E staining based analysis; type: toxicity, organism-based; settings: in vivo, 672 h
[10] = Toxicity in male BALB/c nude mouse xenografted with human U-118-MG cells assessed as body weight loss at 2.5 mg/kg, ip administered daily for 4 weeks; type: organism-based; settings: in vivo, 672 h
[11] = test system: U-118-MG; assay: Cell cycle arrest in human U-118-MG cells assessed as accumulation of cells at G1 phase at 100 uM incubated for 24 hrs by flow cytometric analysis (reference value: 56.2 %); type: functional
[12] = test system: U-118-MG; assay: Antitumor activity against human U-118-MG cells xenografted in male BALB/c nude mouse assessed as tumor growth inhibition at 2.5 mg/kg, ip administered daily for 4 weeks relative to control; type: functional; settings: 672 h, read-out: TGI
[13] = Nephrotoxicity in male BALB/c nude mouse xenografted with human U-118-MG cells assessed as shedding of renal tubular epithelial cells at 0.5 mg/kg, ip administered daily for 4 weeks by H and E staining based analysis; type: toxicity, organism-based; settings: in vivo, 672 h
[14] = test system: U-118-MG; assay: Cell cycle arrest in human U-118-MG cells assessed as accumulation of cells at S phase at 100 uM incubated for 24 hrs by flow cytometric analysis (reference value: 10.7 %); type: functional
[15] = test system: U-118-MG; assay: Cell cycle arrest in human U-118-MG cells assessed as accumulation of cells at G2 phase at 100 uM incubated for 24 hrs by flow cytometric analysis (reference value: 30.6 %); type: functional
[16] = Stability of compound in sodium carbonate buffer at pH 10 measured after 48 hrs by 1H NMR analysis; type: physicochemical; settings: pH 10, 48 h
[17] = Stability of compound in 0.1M HCl solution at pH 1.0 assessed as parent compound remaining measured after 6 hrs by 1H NMR analysis; type: physicochemical; settings: read-out: Stability
[18] = Drug distribution in male Swiss albino mouse plasma at 5 mg/kg, iv measured after 0.5 hrs; type: ADME, organism-based
[19] = Drug distribution in male Swiss albino mouse brain at 5 mg/kg, iv measured after 0.5 hrs; type: ADME, organism-based; settings: read-out: Ct
[20] = test system: U-118-MG; assay: Cell cycle arrest in human U-118-MG cells assessed as accumulation of cells at G1 phase at 20 uM incubated for 24 hrs by flow cytometric analysis (reference value: 56.2 %); type: functional
[21] = test system: U-118-MG; assay: Induction of apoptosis in human U-118-MG cells assessed as apoptotic rate at 20 uM incubated for 24 hrs by Annexin V-FITC/PI staining based flow cytometric analysis relative to control; type: functional
[22] = Ratio of drug concentration in male Swiss albino mouse brain to plasma at 5 mg/kg, iv measured after 0.5 hrs; type: ADME, organism-based; settings: read-out: BPR
[23] = test system: U-118-MG; assay: Antitumor activity against human U-118-MG cells xenografted in male BALB/c nude mouse assessed as tumor growth inhibition at 10 mg/kg, ip administered daily for 4 weeks relative to control; type: functional; settings: 672 h, read-out: TGI
[24] = test system: U-118-MG; assay: Cell cycle arrest in human U-118-MG cells assessed as accumulation of cells at S phase at 20 uM incubated for 24 hrs by flow cytometric analysis (reference value: 10.7 %); type: functional
[25] = test system: U-118-MG; assay: Cell cycle arrest in human U-118-MG cells assessed as accumulation of cells at G2 phase at 20 uM incubated for 24 hrs by flow cytometric analysis (reference value: 30.6 %); type: functional
[26] = Stability of compound in 0.1M HCl solution at pH 1.0 assessed as parent compound remaining measured after 48 hrs by 1H NMR analysis; type: physicochemical; settings: read-out: Stability

Row | Structure (SMILES) | Stability [1] | Stability [2] | Papp at 12 h [4] [×10⁻⁶ cm/s] | IC50 [6] [µM] | IC50 [5] [µM] | Activity [7] | Activity [8] | further results
1 | FC(F)(F)N1CCc2ccccc2[C@@H]1c1ccccc1 | Stable | Stable | – | – | – | – | – | –
2 | CC1=C2CC[C@@](C)(O)[C@@H]2[C@H]2OC(=O)[C@@H](CN(C)C)[C@@H]2CC1 | – | – | – | – | – | – | – | IC50 [3]: 21 µM
3 | COc1ccc2c(c1OC)C(=O)O[C@@H]2[C@H]1c2c(c(C#N)c3c(c2OC)OCO3)CCN1C(F)(F)F | – | – | 12.8 | 39.1 | 19.7 | Active | Dose-dependent-effect | –
4 | FC(F)(F)N1CCc2ccccc2C1Cc1ccccc1 (configuration not stated) | Stable | Stable | – | – | – | – | – | –
5 | FC(F)(F)N1CCCc2ccccc21 | Unstable | Unstable | – | – | – | – | – | Stability [16]: Unstable; remaining at 6 h [17]: 7%
6 | FC(F)(F)N1CCc2ccccc2C1 | Stable | Stable | – | – | – | – | – | –

Continued, in another order:

Row | Stability [1] | Stability [2] | Papp at 12 h [4] [×10⁻⁶ cm/s] | IC50 [6] [µM] | Structure (SMILES) | IC50 [5] [µM] | Activity [7] | Activity [8] | further results
7 | – | – | 15.8 | 33.4 | COc1ccc2c(c1OC)C(=O)O[C@@H]2[C@H]1c2c(c(I)c3c(c2OC)OCO3)CCN1C(F)(F)F | 17.5 | Active | Dose-dependent-effect | –
8 | – | – | 16.8 | 25.8 | COc1ccc2c(c1OC)C(=O)O[C@@H]2[C@H]1c2c(c(Cl)c3c(c2OC)OCO3)CCN1C(F)(F)F | 9.83 | Active | Dose-dependent-effect | –
9 | – | – | 1.47 | > 100 | Cn1nnc2c(C(N)=O)ncn2c1=O [TEMOZOLOMIDE] | > 100 | – | – | Activity [9]: Toxic; Activity [10]: Toxic; Activity [11]: 41.3%; inhibition in vivo at 2.5 mg/kg [12]: 80.4%; Activity [13]: Toxic; Activity [14]: 18.9%; Activity [15]: 36.8%
10 | Stable | Stable | – | – | CC1c2ccccc2CCN1C(F)(F)F (configuration not stated) | – | – | – | –
11 | – | – | 11 | > 100 | COc1ccc2c(c1OC)C(=O)O[C@@H]2[C@H]1c2c(cc3c(c2OC)OCO3)CCN1C [NOSCAPINE] | > 100 | – | – | concentration at 0.5 h [18]: 45.3 ng/mL; concentration at 0.5 h [19]: 19.6 ng/g; Activity [20]: 52.9%; Activity [21]: 16.3%; Kp at 0.5 h [22]: 0.43; inhibition in vivo at 10 mg/kg [23]: 31%; Activity [24]: 10.7%; Activity [25]: 34.1%
12 | Stable | – | 18 | 67.5 | COc1ccc2c(c1OC)C(=O)O[C@@H]2[C@H]1c2c(cc3c(c2OC)OCO3)CCN1C(F)(F)F | 31.3 | Active | Dose-dependent-effect | Stability [16]: Stable; remaining at 48 h [26]: 73%
